The values below come from ChEMBL document CHEMBL1153812, “Hydrolytic cleavage of DNA by urea-bridged macrocyclic polyamines” (Eur J Med Chem, 2009).

Active and inactive are the calls of the source. No cut-off for these calls is given here.

Broadly, the Tm is the temperature at which the thermal transition is half complete.

Holding throughout (assay type): nucleic-acid assay
Experiment [1] has as its system Nucleic Acid. Put plainly: Induction of supercoiled Escherichia coli pUC19 DNA cleavage assessed as formation of open-circular DNA at 357 uM after 36 hrs by agarose gel electrophoresis.
The subject of experiment [2] is Nucleic Acid. Put plainly: Binding affinity to calf thymus duplex DNA assessed as change in viscosity of DNA at 20 mM by viscometric analysis. Conditions: Bos taurus.
Experiment [3] concerns Nucleic Acid. Briefly: Binding affinity to calf thymus duplex DNA assessed as thermal melting temperature at 0.11 mM by UV-visible spectrophotometry. Particulars: Bos taurus.
Experiment [4] deals with Nucleic Acid. Put plainly: Induction of supercoiled Escherichia coli pUC19 DNA cleavage assessed as formation of open-circular DNA at 143 uM after 36 hrs by agarose gel electrophoresis.
For experiment [5], the system named is Nucleic Acid. Put plainly: Induction of supercoiled Escherichia coli pUC19 DNA cleavage assessed as formation of open-circular DNA at 214 uM after 36 hrs by agarose gel electrophoresis.
For experiment [6], the system named is Nucleic Acid. Put plainly: Induction of supercoiled Escherichia coli pUC19 DNA cleavage assessed as formation of open-circular DNA at 357 uM after 36 hrs by agarose gel electrophoresis in presence of […].
Experiment [7] deals with Nucleic Acid. Briefly: Induction of supercoiled Escherichia coli pUC19 DNA cleavage assessed as formation of open-circular DNA at 71 uM after 36 hrs by agarose gel electrophoresis.
The test system of experiment [8] is Nucleic Acid. Briefly: Induction of supercoiled Escherichia coli pUC19 DNA cleavage assessed as formation of open-circular DNA at 286 uM after 36 hrs by agarose gel electrophoresis.
The subject of experiment [9] is Nucleic Acid. Put plainly: Induction of supercoiled Escherichia coli pUC19 DNA cleavage assessed as formation of open-circular DNA at 357 uM after 36 hrs by agarose gel electrophoresis in presence of hydroxyl radical scavenger t-BuOH.
Experiment [10] has as its system Nucleic Acid. Briefly: Induction of supercoiled Escherichia coli pUC19 DNA cleavage assessed as formation of open-circular DNA at 357 uM after 32 hrs by agarose gel electrophoresis.
Experiment [11] has as its system Nucleic Acid. Put plainly: Induction of supercoiled Escherichia coli pUC19 DNA cleavage assessed as formation of open-circular DNA at 357 uM after 36 hrs by agarose gel electrophoresis in presence of singlet oxygen scavenger NaN3.
Experiment [12] deals with Nucleic Acid. Briefly: Induction of supercoiled Escherichia coli pUC19 DNA cleavage assessed as formation of open-circular DNA at 286 uM by agarose gel electrophoresis. Conditions: TDE = time-dependent effect.
The subject of experiment [13] is Nucleic Acid. Put plainly: Induction of supercoiled Escherichia coli pUC19 DNA cleavage assessed as formation of open-circular DNA at 0.285 mM after 36 hrs by TBARS method in presence of hydroxy radical.
The subject of experiment [14] is Nucleic Acid. Briefly: Induction of supercoiled Escherichia coli pUC19 DNA cleavage assessed as formation of open-circular DNA at 357 uM after 36 hrs by agarose gel electrophoresis in presence of hydroxyl radical scavenger DMSO.

For the compound `COC(=O)C(C)NC(=O)NC(C)C(=O)OC` (stereo not given), the outcome in the experiment with Nucleic Acid [1] and in the experiment with Nucleic Acid [2] was Active. The Tm with Nucleic Acid [3] is 76.6 °C.

As to `CCNC(=O)NC(C)C(=O)N1CCNCCNCCNCC1` (stereo not given), the outcome in the experiment with Nucleic Acid [1] and in the experiment with Nucleic Acid [2] was Active. For the same compound, the midpoint of thermal melting (Tm) in the experiment with Nucleic Acid [3] stood at 77.6 °C.

`CC(NC(=O)NC(C)C(=O)N1CCNCCNCCNCC1)C(=O)N1CCNCCNCCNCC1` (stereo not given): the Activity in the experiment with Nucleic Acid [1] came out at 97%; with Nucleic Acid [4] it was 59%; in the experiment on Nucleic Acid [5], 72%; in the experiment with Nucleic Acid [7] it was 29%; in the experiment on Nucleic Acid [8] it was 89%; in the experiment on Nucleic Acid [10], 97%. In the experiment with Nucleic Acid [12], the Activity result is “tde”. Further, the result in the experiment with Nucleic Acid [2], in the experiment with Nucleic Acid [6], in the experiment with Nucleic Acid [9], in the experiment on Nucleic Acid [11], in the experiment on Nucleic Acid [13] and in the experiment with Nucleic Acid [14] was Active. The Tm in the experiment with Nucleic Acid [3] was found to be 75.7 °C.
